Source: US20080200393A1, “Method and Composition For Treating Angiogenesis and For Preventing Cancer Progression and Metastasis Comprising a Prostate Secretory Protein (Psp94) Family Member” (Ambrillia Biopharma Inc., priority 2004, published 2008)
Where no end group is shown, it is not given here.

How the values were obtained:
MMP-9 = assay: Gelatin zymography of MatLyLu cell culture media; type: cell-based; details: MatLyLu cells, 500 ug/ml and 1 mg/ml, 50 ug/ml collagen type-I, serum free, 72 hrs
Description: Zymography. Zymography is a technique generally used to analyze the activity of matrix metalloproteinases (MMPs) in biological samples. It involves the electrophoretic separation of proteins under denaturing (Sodium Dodecyl Sulfate (SDS)) but non-reducing conditions through a polyacrylamide gel containing gelatin (for example, 10% gel containing 1 mg/ml gelatin for MMP-9 and MMP-2 assays). The resolved proteins are re-natured by exchanging SDS with a non-ionic detergent such as Triton X-100 and the gel is incubated in an incubation buffer for activation of MMP-2 and MMP-9 (for example at 37° C. for 18 hrs). The gel is stained with Coomassie blue and the MMP-2 and MMP-9 bands may be visualized as clear bands against a blue background (i.e., the MMPs degrade the gelatin and are visualized as clear bands; pro MMP-2 is 68 kDa and pro-MMP-9 is 92 kDa). These bands can be quantified using densitometry. For example, prior to stimulation, quiescent HUVEC were serum-starved for 16 h in the presence or absence of PCK3145 or PD98059 and then stimulated with VEGF. […] Gelatinolytic activity was detected as unstained bands on a blue background. […]
The media were collected after 72 hours of exposure to the PCK3145 derivative and subjected to gelatin zymography. […] The band intensities were determined using the Image Quant software (version 5.0) from molecular Dynamics. […]

HUVEC = HUVEC migration assay (modified Boyden chambers, gelatin-coated filters); type: cell-based, Human
Description: Migration Assays. Transwells filters (8-μm pore size; Costar, Cambridge, Mass.) were pre-coated with 0.5% gelatin/PBS for 24 h at 4° C. The transwells were then washed with PBS and assembled in 24-well plates. The upper chamber of each transwell was filled with 100 μl of HUVEC (1×10^6 cells/ml) and cells were allowed to adhere for 1 h. Cells were then treated for 2 h by adding 100 μl of 2-fold concentrated drug solution prepared in serum-free medium into the upper chamber and 600 μl of the drug solution into the lower chamber. Migration was initiated by adding VEGF (10 ng/ml), or S1P (1 μM) to the lower chamber. The plate was placed at 37° C. in 5% CO2/95% air for 4 h. Cells that had migrated to the lower surface of the filters were fixed with 10% formalin phosphate and stained with 0.1% Crystal Violet/20% (v/v) methanol. The migration was quantified using computer-assisted imaging and data are expressed as the average density of migrated cells per four fields (magnification×50).
Cells were plated onto gelatin-coated filters inserted in modified Boyden chemotactic chambers. The effect of PCK3145 on basal migration and on VEGF-induced migration was monitored by the number of cells that had migrated comparatively to untreated control cells. HUVEC were dislodged from the flasks by trypsinization, washed and resuspended in serum-free media. Cells were placed onto gelatin-coated filters inserted in chambers and incubated at 37° C., 5% CO2 for 30 min to allow adequate anchoring to the filters. The monolayers were then exposed to serum-free media containing PCK3145 (300 μg/ml) added within the upper and lower compartment of the chambers. After 2 h, VEGF (50 ng/ml) was added in the lower chamber as a chemoattractant. Cell migration was allowed to proceed for another 3 h. Filters were then fixed, stained, and the migrated cells quantified by microscopy as described in the Methods section. […] The effect of. PCK on S1P-induced HUVEC migration was also measured, but no inhibition was observed (not shown) in this particular assay.

EWQTDNCETCTCYET (cysteine pairing not given here) [PCK3145 derivative, PCK3145 derivative with acetylaminomethyl groups on the three cysteines]
MMP-9 secreted in the cell culture media (zymography) (MMP-9): dose-dependent reduction | S1P-induced HUVEC migration (HUVEC): no inhibition
